“Also recorded” adds a separate entry of the source.
Columns and labels:
[1] = target: T1, core proteasome, post glutamyl peptide hydrolyzing (PGPH) activity (Homo sapiens, UniProt P25787+P60900); assay: PGPH peptidase activity of latent 20S proteasome (Z-LLE-AMC); format: biochemical; details: 100 μM Z-LLE-AMC, n = 3–4
T1 construct: Human housekeeping core (20S) proteasome purified from erythrocytes; purchased Boston Biochem, Inc. or Enzo Life Sciences, Inc; host or cells: human erythrocytes (natural source)
Description: (§1) Human housekeeping core (20S) proteasome purified from erythrocytes was purchased from Boston Biochem, Inc. (Cambridge, MA) or from Enzo Life Sciences, Inc. (Farmingdale, NY). Multiple batches of the proteasomes were used and performed reproducibly. The stock proteasome was diluted to 0.2 mg/mL working solution in “dilution buffer” (50 mM Tris/HCl, pH 8, 20% glycerol). The following model peptide substrates, all releasing fluorescent 7-amino-4-methylcoumarin (AMC) reporter group after cleavage, were used: succinyl-LeuLeuValTyr-AMC (for the ChT-L peptidase; SucLLVY-AMC; Bachem Bioscience Inc., Philadelphia, PA), butoxycarbonyl-LeuArgArg-AMC (T-L; Bachem Bioscience Inc., Philadelphia, PA) and carbobenzoxy- LeuLeuGlu-AMC (PGPH; Enzo Life Sciences Inc., Farmingdale, NY). The substrates were used at concentration of 50 μM (ChT-L) or 100 μM (T-L, PGPH). […] After mixing, the plate was transferred to a Fluoroskan Ascent plate reader (Thermo Fisher Scientific Inc., Waltham, MA) for 1 h (37 °C), with fluorescence readouts once per minute. […] The reaction rates were calculated from a linear segment of kinetic curves constructed from measurements in 1-min intervals. Reaction rates were calculated using a linear fit performed with the Slope Analyser and Enzyme Kinetics applications launched within Origin Pro 2019 (OriginLab Corporation, Northampton, MA). […]

[2] = target: T2, core proteasome, trypsin-like (T-L) activity (Homo sapiens, UniProt P25787+P60900); assay: T-L peptidase activity of latent 20S proteasome (Boc-LRR-AMC); format: biochemical; details: 100 μM Boc-LRR-AMC, n = 3–4
T2 construct: Human housekeeping core (20S) proteasome purified from erythrocytes; purchased Boston Biochem, Inc. or Enzo Life Sciences, Inc; host or cells: human erythrocytes (natural source)
Description: as §1

SMILES: N=C(N)NCCC[C@H](NC(=O)CN)C(=O)N[C@@H](CCCCN)C(=O)N[C@@H](CCCCN)C(=O)N[C@@H](CCCNC(=N)N)C(=O)N[C@@H](CCCNC(=N)N)C(=O)N[C@@H](CCC(N)=O)C(=O)N1Cc2ccccc2C[C@H]1C(=O)N1[C@@H](C(=O)N[C@@H](CCCNC(=N)N)C(=O)N2CCC[C@H]2C(=O)N[C@@H](CO)C(=O)O)C[C@H]2CCCC[C@H]21 [(5)]
- Effect on PGPH activity (in words) [1]: weak inhibitory effects; also recorded: did not seem to significantly affect
- Effect on T-L activity (in words) [2]: weak inhibitory effects; also recorded: did not seem to significantly affect

SMILES: NCCCC[C@H](NC(=O)[C@H](CCCCN)NC(=O)[C@H](CCCCN)NC(=O)c1cc(NC(=O)[C@H](CCCCN)NC(=O)[C@H](CCCCN)NC(=O)[C@@H](N)CCCCN)cc(NC(=O)[C@H](CCCCN)NC(=O)[C@H](CCCCN)NC(=O)[C@@H](N)CCCCN)c1)C(=O)O [(8)]
- Effect on PGPH activity (in words) [1]: weak inhibitory effects; also recorded: did not seem to significantly affect
- Effect on T-L activity (in words) [2]: weak inhibitory effects; also recorded: did not seem to significantly affect

Reference: paper PMC7145288, “New Peptide-Based Pharmacophore Activates 20S Proteasome” (Molecules, 2020)
